The results in this text go back to patent publication US10807970B2 (priority 2016, dated 2020).

Where two headings read alike, the source gives them in different places.

This assay deals with human σ1 receptor (Homo sapiens, UniProt Q99720). Put plainly: Human σ1 receptor radioligand assay ([3H](+)-pentazocine, transfected HEK-293 membranes). In kind it is binding. Set-up: μ and σ1 dual binding: key to the marks not given beside the values. The conditions noted are these: one class symbol for both Ki-σ1 (human σ1 receptor, A1) and Ki-μ (human μ-opioid receptor, A2). In outline: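 Membranes from HEK-293 cells transfected with human σ1 receptor (7 μg) incubated with 5 nM [3H](+)-pentazocine in 50 mM Tris-HCl pH 8, 120 min at 37° C. Non-specific binding defined with 10 μM haloperidol. Bound radioligand separated by filtration, washed with ice-cold 10 mM Tris-HCl pH 7.4, and counted by scintillation.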

The mark [1] stands for this setting: read-out: μ and σ1 dual binding.

Sequence of human σ1 receptor (Q99720 whole entry): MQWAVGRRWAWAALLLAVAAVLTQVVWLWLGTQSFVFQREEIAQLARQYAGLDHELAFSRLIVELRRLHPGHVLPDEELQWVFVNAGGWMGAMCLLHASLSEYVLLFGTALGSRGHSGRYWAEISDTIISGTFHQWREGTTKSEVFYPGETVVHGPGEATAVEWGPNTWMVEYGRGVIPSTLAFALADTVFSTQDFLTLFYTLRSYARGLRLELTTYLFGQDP

For the compound `CC1(C)CC(C(=O)c2ccccn2)(N2CCN(CCC(F)(F)F)CC2)CCO1` (stereo not shown) [Example 127, (2,2-dimethyl-4-(4-(3,3,3-trifluoropropyl)piperazin-1-yl)tetrahydro-2H-pyran-4-yl)(pyridin-2-yl)methanone], the Ki under setting [1] was greater than 500 nM. In the case of `c1ccc(CN2CCN(C3(c4ccccc4)CCOCC3)CC2)cc1` [Example 30, 1-benzyl-4-(4-phenyltetrahydro-2H-pyran-4-yl)piperazine], the “μ and σ1 dual binding” value was “++”. Where the note is “μ and σ1 dual binding”, `CCC1(N2CCN(CCc3cccc(F)c3)CC2)CCOC(C)(C)C1` (stereo not shown) [Example 93, 1-(4-ethyl-2,2-dimethyltetrahydro-2H-pyran-4-yl)-4-(3-fluorophenethyl)piperazine] had a Ki of less than 500 nM. On the same count and under the same terms, next, `CC1(C)CC(C(=O)c2ccccn2)(N2CCN(CCc3ccncc3Cl)CC2)CCO1` (stereo not shown) [Example 57, (4-(4-(2-(3-chloropyridin-4-yl)ethyl)piperazin-1-yl)-2,2-dimethyltetrahydro-2H-pyran-4-yl)(pyridin-2-yl)methanone]: less than 500 nM.

For `CC[C@]1(N2CCN(CCC(C)C)CC2)CCO[C@@H](C)C1` [Example 159, 1-((2S,4S)-4-ethyl-2-methyltetrahydro-2H-pyran-4-yl)-4-isopentylpiperazine], the “μ and σ1 dual binding” value is “++”.

On to `O=C(c1cccc(C(F)(F)F)n1)C1(N2CCN(Cc3ccccc3)CC2)CCOC2(CCCC2)C1` (stereo not shown) [Example 6, (9-(4-benzylpiperazin-1-yl)-6-oxaspiro[4.5]decan-9-yl)(6-(trifluoromethyl)pyridin-2-yl)methanone], for which the Ki (μ and σ1 dual binding) was less than 100 nM. Consider `CC(C)OCCN1CCN([C@]2(C(=O)c3ccccn3)CCOC(C)(C)C2)CC1` [Example 135, (R)-(4-(4-(2-isopropoxyethyl)piperazin-1-yl)-2,2-dimethyltetrahydro-2H-pyran-4-yl)(pyridin-2-yl)methanone], for which the Ki under setting [1] is less than 500 nM.

Take `CC(C)OCCN(C)[C@H]1CCN([C@]2(C(=O)c3ccccn3)CCOC(C)(C)C2)C1` [Example 146, ((R)-4-((S)-3-((2-isopropoxyethyl)(methyl)amino)pyrrolidin-1-yl)-2,2-dimethyltetrahydro-2H-pyran-4-yl)(pyridin-2-yl)methanone]: the “μ and σ1 dual binding” value is reported as “++”. Regarding `CC(C)OCCCN1CCN(C2(C(=O)c3ccccn3)CCOC(C)(C)C2)CC1` (stereo not shown) [Example 71, (4-(4-(3-isopropoxypropyl)piperazin-1-yl)-2,2-dimethyltetrahydro-2H-pyran-4-yl)(pyridin-2-yl)methanone], the Ki (μ and σ1 dual binding) was less than 500 nM. On the same count and under the same terms, under `c1ccc(CN2CCN(C3(Cc4ccccc4)CCOC4(CCCC4)C3)CC2)cc1` (stereo not shown) [Example 34, 1-benzyl-4-(9-benzyl-6-oxaspiro[4.5]decan-9-yl)piperazine] stands less than 500 nM. In the case of `CC1(C)CC(C(=O)c2ccccn2)(N2CC3CN(Cc4ccccc4)CC3C2)CCO1` (stereo not shown) [Example 18, (4-(5-benzylhexahydropyrrolo[3,4-c]pyrrol-2(1H)-yl)-2,2-dimethyltetrahydro-2H-pyran-4-yl)(pyridin-2-yl)methanone], the Ki (μ and σ1 dual binding) is less than 500 nM. In the case of `CCC1(N2CCN(Cc3ccc(F)cc3)CC2)CCOCC1` [Example 175, 1-(4-ethyltetrahydro-2H-pyran-4-yl)-4-(4-fluorobenzyl)piperazine], the “μ and σ1 dual binding” value is on record as “++”. On to `CCOCCN1CCN(C2(C(=O)c3ccccn3)CCOC(C)(C)C2)CC1` (stereo not shown) [Example 67, (4-(4-(2-ethoxyethyl)piperazin-1-yl)-2,2-dimethyltetrahydro-2H-pyran-4-yl)(pyridin-2-yl)methanone], for which the Ki under setting [1] was greater than 500 nM. `CN(Cc1ccccc1)[C@@H]1CCN([C@]2(C(=O)c3ccccn3)CCOC(C)(C)C2)C1` [Example 142] gave a Ki (μ and σ1 dual binding) of less than 100 nM.

Consider `CC[C@@]1(N2CCN(CCC(C)C)CC2)CCO[C@@H](C)C1` [Example 160, 1-((2S,4R)-4-ethyl-2-methyltetrahydro-2H-pyran-4-yl)-4-isopentylpiperazine], for which the “μ and σ1 dual binding” value is on record as “++”. Same read-out and setting: next, `C[C@@H]1C[C@@](C(=O)c2ccccn2)(N2CCN(Cc3ccccc3)CC2)CCO1` [Example 28]: “++”; `O=C(c1ccccn1)C1(N2CCN(Cc3ccc(F)cc3)CC2)CCOCC1` [Example 181, (4-(4-(4-fluorobenzyl)piperazin-1-yl)tetrahydro-2H-pyran-4-yl)(pyridin-2-yl)methanone]: “++”; `CC1(C)CC(C(=O)c2ccccc2)(N2CCN(Cc3ccccc3)CC2)CCO1` (stereo not shown) [Example 9, (4-(4-benzylpiperazin-1-yl)-2,2-dimethyltetrahydro-2H-pyran-4-yl)(phenyl)methanone]: “++”. In the case of `CC(C)CCN(C)[C@@H]1CCN([C@]2(C(=O)c3ccccn3)CCOC(C)(C)C2)C1` [Example 149, ((R)-4-((R)-3-(isopentyl(methyl)amino)pyrrolidin-1-yl)-2,2-dimethyltetrahydro-2H-pyran-4-yl)(pyridin-2-yl)methanone], the “μ and σ1 dual binding” value is recorded as “++”. For the setting “μ and σ1 dual binding”, `CC1(C)CC(Cc2ccccc2)(N2CCN(Cc3ccccc3)CC2)CCO1` (stereo not shown) [Example 40, 1-benzyl-4-(4-benzyl-2,2-dimethyltetrahydro-2H-pyran-4-yl)piperazine] came in with a Ki of less than 100 nM.

Consider `O=C(c1ccccc1)C1(N2CCN(Cc3ccccc3)CC2)CCOC2(CCCC2)C1` (stereo not shown) [Example 4, (9-(4-benzylpiperazin-1-yl)-6-oxaspiro[4.5]decan-9-yl)(phenyl)methanone], for which, for the setting “μ and σ1 dual binding”, the Ki was less than 100 nM. Same read-out and setting: under `CC(C)C1(N2CCN(Cc3ccccc3)CC2)CCOC(C)(C)C1` (stereo not shown) [Example 43, 1-benzyl-4-(4-isopropyl-2,2-dimethyltetrahydro-2H-pyran-4-yl)piperazine] stands less than 500 nM.

Take `N#Cc1cccc(CN2CCN(C3(C(=O)c4ccccn4)CCOCC3)CC2)c1` [Example 193, 3-((4-(4-picolinoyltetrahydro-2H-pyran-4-yl)piperazin-1-yl)methyl)benzonitrile]: the Ki under setting [1] was greater than 500 nM. Take `CC(C)OCCN1CCN([C@]2(C(=O)c3ccccn3)CCO[C@@H](C)C2)CC1` [Example 96]: the Ki under setting [1] is greater than 500 nM. As to `CC(C)CCN1CCN(C2(C(=O)c3ccccc3)CCOC(C)(C)C2)CC1` (stereo not shown) [Example 12, (4-(4-isopentylpiperazin-1-yl)-2,2-dimethyltetrahydro-2H-pyran-4-yl)(phenyl)methanone], the Ki (μ and σ1 dual binding) is less than 500 nM. `CC(C)C1(N2CCN(CCc3ccccc3F)CC2)CCOC(C)(C)C1` (stereo not shown) [Example 89, 1-(2-fluorophenethyl)-4-(4-isopropyl-2,2-dimethyltetrahydro-2H-pyran-4-yl)piperazine]: the Ki (μ and σ1 dual binding) was less than 500 nM. Consider `CC(C)OCCN1CCC(C2(C(=O)c3ccccn3)CCOC(C)(C)C2)CC1` (stereo not shown) [Example 77, (4-(1-(2-isopropoxyethyl)piperidin-4-yl)-2,2-dimethyltetrahydro-2H-pyran-4-yl)(pyridin-2-yl)methanone], for which the Ki under setting [1] was less than 500 nM.

With `C[C@H]1C[C@](C(=O)c2ccccn2)(C2CCN(Cc3ccccc3)CC2)CCO1` [Example 153], where the note is “μ and σ1 dual binding”, the Ki was less than 500 nM.

For the compound `CC[C@@]1(N2CCN(CCc3ccccc3)CC2)CCOC(C)(C)C1` [Example 113, (R) 1-(4-ethyl-2,2-dimethyltetrahydro-2H-pyran-4-yl)-4-phenethylpiperazine], the “μ and σ1 dual binding” value is recorded as “++”. Still for that read-out and setting: under `CC(C)OCCN1CCN([C@@]2(C(=O)c3ccccn3)CCO[C@H](C)C2)CC1` [Example 95] stands “++”. The compound `CC(C)OCCCN1CCC(C2(C(=O)c3ccccn3)CCOC(C)(C)C2)CC1` (stereo not shown) [Example 107, (4-(1-(3-isopropoxypropyl)piperidin-4-yl)-2,2-dimethyltetrahydro-2H-pyran-4-yl)(pyridin-2-yl)methanone] showed a Ki (μ and σ1 dual binding) greater than 500 nM.

As to `C[C@H]1C[C@@](C(=O)c2ccccn2)(N2CCN(CCc3ccccc3F)CC2)CCO1` [Example 170], the Ki (μ and σ1 dual binding) is less than 500 nM. Still for that read-out and setting: under `CC(C)COCCN1CCN(C2(C(=O)c3ccccn3)CCOC(C)(C)C2)CC1` (stereo not shown) [Example 66, (4-(4-(2-isobutoxyethyl)piperazin-1-yl)-2,2-dimethyltetrahydro-2H-pyran-4-yl)(pyridin-2-yl)methanone] stands less than 500 nM.

As for `C=CC1(N2CCN(CCc3ccccc3)CC2)CCOC(C)(C)C1` (stereo not shown) [Example 45, 1-(2,2-dimethyl-4-vinyltetrahydro-2H-pyran-4-yl)-4-phenethylpiperazine], the Ki under setting [1] was greater than 500 nM. For `CC1(N2CCN(Cc3ccc(C#N)cc3)CC2)CCOCC1` [Example 183, 4-((4-(4-methyltetrahydro-2H-pyran-4-yl)piperazin-1-yl)methyl)benzonitrile], the “μ and σ1 dual binding” value was “++”. For `O=C(c1ccccn1)C1(N2CCN(Cc3ccccc3)CC2)CCOCC1` [Example 8, (4-(4-benzylpiperazin-1-yl)tetrahydro-2H-pyran-4-yl)(pyridin-2-yl)methanone], the “μ and σ1 dual binding” value was “++”. `CCC1(N2CCN(CCC(C)C)CC2)CCOCC1` [Example 180, 1-(4-ethyltetrahydro-2H-pyran-4-yl)-4-isopentylpiperazine]: the “μ and σ1 dual binding” value is reported as “++”. In the case of `CC1(C)CC(C(=O)c2ccccn2)(N2CCN(Cc3ccc(F)cc3)CC2)CCO1` (stereo not shown) [Example 60, (4-(4-(4-fluorobenzyl)piperazin-1-yl)-2,2-dimethyltetrahydro-2H-pyran-4-yl)(pyridin-2-yl)methanone], under “μ and σ1 dual binding”, the Ki was less than 500 nM. As to `CC(C)CCN1CCN([C@]2(C(=O)c3ccccn3)CCO[C@H](C)C2)CC1` [Example 246, ((2R,4R)-4-(4-isopentylpiperazin-1-yl)-2-methyltetrahydro-2H-pyran-4-yl)(pyridin-2-yl)methanone], the Ki under setting [1] is less than 500 nM. In the case of `COc1ccc(CN2CCN(C3(C(=O)c4ccccn4)CCOCC3)CC2)cc1` [Example 195, (4-(4-(4-methoxybenzyl)piperazin-1-yl)tetrahydro-2H-pyran-4-yl)(pyridin-2-yl)methanone], under setting [1], the Ki is greater than 500 nM.
